Source: patent publication US10604784B2, “Method and device for antibiotic susceptibility testing based on fluctuations of electrical resistance in a microchannel” (TRUSTEES OF BOSTON UNIVERSITY, priority 2016, dated 2020)

How the values were obtained:
Type in all cases: cell-based
S. epidermidis = assay: Mean resistance based susceptibility test in the microchannel (bacterial growth); details: broth/Vancomycin mixture, vancomycin 4 μg/ml, t=0 to 4 hrs
Description: After the bacteria are trapped, for the Mean Resistance based Susceptibility Test 410, at 412, the baseline mean (average or time-averaged measured resistance through the channel) resistance can be measured for a predefined period of time. The baseline mean can be determined as a function (e.g., the average or time-average) of the measured resistance through the channel for two or more points in time. After the baseline mean resistance is determined, at 414, the antibiotic is added to the solution, either via one of the reservoirs 110 or directly to the microchannel 120 and, at 416, the solution containing the bacteria and the antibiotic is allowed to incubate for a predefined period of time (e.g., 1-3 hours, although shorter or longer periods can be used). After the expiration of a predefined period of time, at 418, the mean resistance is determined (e.g., as a function of the measured resistance through the channel for two or more points in time) and, at 420, the mean resistance is compared to the baseline mean resistance. […]
In the experiment shown in FIGS. 14, 15 and 16, the susceptibility of S. epidermidis to Vancomycin was tested using the mean resistance based approach shown in the flowchart in FIG. 4. As discussed above, S. epidermidis is non-motile and readily settles in the microchannel. […]

[1] = test system: susceptible E. coli strain; assay: Electrical fluctuation based susceptibility test of immobilized bacteria in human urine/broth, susceptible strain; details: about 50 bacteria, urine/broth/antibiotic mixture, antibiotic concentration above MIC, FIG. 13A/13C
Description: (§1) After the bacteria are trapped, for the Electrical Fluctuation based Susceptibility Test 430, at 432, the system measures the fluctuations of the electrical signals (e.g., voltage or current) to determine a baseline RMS signal level (e.g., the RMS level determined as function of the measured signal fluctuations). Next, at 434, the antibiotic is added to the solution, either via one of the reservoirs 110 or directly to the microchannel 120. Next, at 436, the (RMS) fluctuations of the electrical signal (e.g., voltage or current) are measured again and an RMS level can be determined as a function of the measured signal fluctuations, and, at 440, the RMS level of the fluctuations of the electrical signal can be compared to the baseline RMS signal level. If the RMS level of the fluctuations of the electrical signal is greater than the baseline signal RMS level, then the bacteria can be considered resistant to the antibiotic at 442. If the RMS level of the fluctuations of the electrical signal is not greater than the baseline RMS signal level, the bacteria can be considered susceptible to attack by the antibiotic at 444.
(§2) FIGS. 13A, 13B, and 13C show the results of antibiotic susceptibility studies in human urine. In this example, two strains of E. coli are used, with one being resistant to the administered antibiotic, nalidixic acid. […]

resistant E. coli strain = assay: Electrical fluctuation based susceptibility test of immobilized bacteria in human urine/broth, resistant strain; details: about 50 bacteria, urine/broth/antibiotic mixture, antibiotic concentration above MIC, FIG. 13B/13C
Description: as §1, §2

| Compound | population size of bacteria in the antibiotic solution (S. epidermidis) | mean resistance value (change over time) (S. epidermidis; FIG. 16) | voltage fluctuations (RMS amplitude) over time after antibiotic is administered [1] | voltage fluctuations (RMS amplitude) over time after antibiotic is administered (resistant E. coli strain) |
| --- | --- | --- | --- | --- |
| CN[C@H](CC(C)C)C(=O)N[C@H]1C(=O)N[C@@H](CC(N)=O)C(=O)N[C@H]2C(=O)N[C@H]3C(=O)N[C@H](C(=O)N[C@H](C(=O)O)c4cc(O)cc(O)c4-c4cc3ccc4O)[C@H](O)c3ccc(c(Cl)c3)Oc3cc2cc(c3O[C@@H]2O[C@H](CO)[C@@H](O)[C@H](O)[C@H]2O[C@H]2C[C@](C)(N)[C@H](O)[C@H](C)O2)Oc2ccc(cc2Cl)[C@H]1O [Vancomycin] | the population size stays the same | does not change noticeably | – | – |
| CCn1cc(C(=O)O)c(=O)c2ccc(C)nc21 [nalidixic acid] | – | – | decay rather quickly | do not show significant changes over time |
